Source: patent US20220402950A1, “SUBSTITUTED BENZIMIDAZOLES AS PAD4 INHIBITORS” (BRISTOL-MYERS SQUIBB COMPANY, priority 2018, published 2022)

Molecular target: human PAD4 (hPAD4) (Homo sapiens, UniProt Q9UM07)
Experiment: RFMS Human PAD4 Functional Assay
Assay type: biochemical
Settings: hPAD4 RFMS IC50, human PAD4, rapid-fire mass spectrum (RFMS) assay; 5 nM hPAD4, 250 μM BAEE
Summary of the method: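 RapidFire ESI-MS quantification, normalised to a modified-citrulline internal standard, after phenyl glyoxal (final 4 mM) derivatisation of the TCA-quenched reaction. The enzyme (10 nM) sat 30 min with compound (up to 50 μM final) before 500 μM BAEE (as added) started a 90 min, 37 °C reaction. Buffer: HEPES pH 7.5, 50 μM calcium, 5 μM TPEN.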

Sequence of human PAD4 (hPAD4) (Q9UM07 whole entry): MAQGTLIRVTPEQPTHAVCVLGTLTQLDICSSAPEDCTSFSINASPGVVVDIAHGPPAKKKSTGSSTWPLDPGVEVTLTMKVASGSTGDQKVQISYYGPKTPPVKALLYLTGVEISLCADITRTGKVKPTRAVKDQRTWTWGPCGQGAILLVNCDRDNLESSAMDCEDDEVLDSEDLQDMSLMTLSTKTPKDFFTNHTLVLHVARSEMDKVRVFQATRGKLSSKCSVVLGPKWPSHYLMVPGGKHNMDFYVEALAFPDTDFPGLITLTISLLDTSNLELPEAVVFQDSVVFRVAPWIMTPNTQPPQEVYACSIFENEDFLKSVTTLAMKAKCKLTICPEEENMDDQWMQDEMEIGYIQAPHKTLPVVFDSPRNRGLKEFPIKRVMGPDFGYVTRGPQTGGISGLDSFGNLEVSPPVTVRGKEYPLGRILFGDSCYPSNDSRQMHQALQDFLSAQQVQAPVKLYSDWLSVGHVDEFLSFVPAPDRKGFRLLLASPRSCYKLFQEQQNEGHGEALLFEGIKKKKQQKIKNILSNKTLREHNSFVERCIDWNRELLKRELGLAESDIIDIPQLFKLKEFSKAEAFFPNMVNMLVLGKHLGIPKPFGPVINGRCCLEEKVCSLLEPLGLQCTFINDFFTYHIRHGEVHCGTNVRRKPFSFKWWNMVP

SMILES | IC50
COc1cc(C(=O)N2C[C@H]3CC[C@@H]2[C@@H]3N)cc2nc(-c3cc4cccc(C5(O)CCC5)c4n3CC3CC3)n(C)c12 [Example 218, ((1R,4R,7R)-7-amino-2-azabicyclo[2.2.1]heptan-2-yl)(2-(1-(cyclopropylmethyl)-7-(1-hydroxycyclobutyl)-1H-indol-2-yl)-7-methoxy-1-methyl-1H-benzo[d]imidazol-5-yl)methanone] | 57 nM
COc1cc(C(=O)N2C[C@H]3CC[C@@H]2[C@@H]3N)cc2nc(-c3cc4cccc(C5=CCC5)c4n3CC3CC3)n(C)c12 [Example 219, ((1R,4R,7R)-7-amino-2-azabicyclo[2.2.1]heptan-2-yl)(2-(7-(cyclobut-1-en-1-yl)-1-(cyclopropylmethyl)-1H-indol-2-yl)-7-methoxy-1-methyl-1H-benzo[d]imidazol-5-yl)methanone] | 52 nM
COc1cc(C(=O)N2C[C@H]3CC[C@@H]2[C@@H]3N)cc2nc(-c3cc4cccc(C5=CCN(C(C)=O)CC5)c4n3CC3CC3)n(C)c12 [Example 220, 1-(4-(2-(5-((1R,4R,7R)-7-amino-2-azabicyclo[2.2.1]heptane-2-carbonyl)-7-methoxy-1-methyl-1H-benzo[d]imidazol-2-yl)-1-(cyclopropylmethyl)-1H-indol-7-yl)-3,6-dihydropyridin-1(2H)-yl)ethan-1-one] | 43 nM
COc1cc(C(=O)N2C[C@H]3CC[C@@H]2[C@@H]3N)cc2nc(-c3cc4cccc(-c5cccc(C(O)CO)c5)c4n3CC3CC3)n(C)c12 (stereo partly drawn) [Example 222, ((1R,4R,7R)-7-amino-2-azabicyclo[2.2.1]heptan-2-yl)(2-(1-(cyclopropylmethyl)-7-(3-(1,2-dihydroxyethyl)phenyl)-1H-indol-2-yl)-7-methoxy-1-methyl-1H-benzo[d]imidazol-5-yl)methanone] | 94 nM
COc1cc(C(=O)N2C[C@H]3CC[C@@H]2[C@@H]3N)cc2nc(-c3cc4cccc(-c5ccc(CNC(C)=O)c(CO)c5)c4n3CC3CC3)n(C)c12 [Example 223, N-(4-(2-(5-((1R,4R,7R)-7-amino-2-azabicyclo[2.2.1]heptane-2-carbonyl)-7-methoxy-1-methyl-1H-benzo[d]imidazol-2-yl)-1-(cyclopropylmethyl)-1H-indol-7-yl)-2-(hydroxymethyl)benzyl) acetamide] | 88 nM
COc1cc(C(=O)N2C[C@H]3CC[C@@H]2[C@@H]3N)cc2nc(-c3cc4cccc(C5CCN(C(=O)C6CC67CC7)CC5)c4n3CC3CC3)n(C)c12 (stereo partly drawn) [Example 224, (4-(2-(5-((1R,4R,7R)-7-amino-2-azabicyclo[2.2.1]heptane-2-carbonyl)-7-methoxy-1-methyl-1H-benzo[d]imidazol-2-yl)-1-(cyclopropylmethyl)-1H-indol-7-yl)piperidin-1-yl)(spiro[2.2]pentan-1-yl)methanone] | 78 nM
COc1cc(C(=O)N2C[C@H]3CC[C@@H]2[C@@H]3N)cc2nc(-c3cc4cccc(C5CCN(C(=O)C6CC6)CC5)c4n3CC3CC3)n(C)c12 [Example 225, (4-(2-(5-((1R,4R,7R)-7-amino-2-azabicyclo[2.2.1]heptane-2-carbonyl)-7-methoxy-1-methyl-1H-benzo[d]imidazol-2-yl)-1-(cyclopropylmethyl)-1H-indol-7-yl)piperidin-1-yl)(cyclopropyl)metha-none] | 112 nM
COCC(=O)N1CCC(c2cccc3cc(-c4nc5cc(C(=O)N6C[C@H](N)C[C@@H](F)C6)cc(OC)c5n4C)n(CC4CC4)c23)CC1 [Example 226, 1-(4-(2-(5-((3R,5R)-3-amino-5-fluoropiperidine-1-carbonyl)-7-methoxy-1-methyl-1H-benzo[d]imidazol-2-yl)-1-(cyclopropylmethyl)-1H-indol-7-yl)piperidin-1-yl)-2-methoxyethan-1-one] | 53 nM
COc1cc(C(=O)N2C[C@H](N)C[C@@H](F)C2)cc2nc(-c3cc4cccc(C5CCN(C(C)=O)CC5)c4n3CC3CC3)n(C)c12 [Example 227, 1-(4-(2-(5-((3R,5R)-3-amino-5-fluoropiperidine-1-carbonyl)-7-methoxy-1-methyl-1H-benzo[d]imidazol-2-yl)-1-(cyclopropylmethyl)-1H-indol-7-yl)piperidin-1-yl)ethan-1-one] | 77 nM
COCC(=O)N1CCC(c2cccc3cc(-c4nc5cc(C(=O)N6C[C@H]7CC[C@@H]6[C@@H]7N)cc(OC)c5n4C)n(CC4CC4)c23)CC1 [Example 230, 1-(4-(2-(5-((1R,4R,7R)-7-amino-2-azabicyclo[2.2.1]heptane-2-carbonyl)-7-methoxy-1-methyl-1H-benzo[d]imidazol-2-yl)-1-(cyclopropylmethyl)-1H-indol-7-yl)piperidin-1-yl)-2-methoxyethan-1-one] | 21 nM
COc1cc(C(=O)N2C[C@H]3CC[C@@H]2[C@@H]3N)cc2nc(-c3cc4cccc(C5CCN(C(=O)CC#N)CC5)c4n3CC3CC3)n(C)c12 [Example 231, 3-(4-(2-(5-((1R,4R,7R)-7-amino-2-azabicyclo[2.2.1]heptane-2-carbonyl)-7-methoxy-1-methyl-1H-benzo[d]imidazol-2-yl)-1-(cyclopropylmethyl)-1H-indol-7-yl)piperidin-1-yl)-3-oxopropanenitrile] | 66 nM
COc1cc(C(=O)N2C[C@H]3CC[C@@H]2[C@@H]3N)cc2nc(-c3cc4cccc(C5CCN(C(=O)COCC(F)(F)F)CC5)c4n3CC3CC3)n(C)c12 [Example 232, 1-(4-(2-(5-((1R,4R,7R)-7-amino-2-azabicyclo[2.2.1]heptane-2-carbonyl)-7-methoxy-1-methyl-1H-benzo[d]imidazol-2-yl)-1-(cyclopropylmethyl)-1H-indol-7-yl)piperidin-1-yl)-2-(2,2,2-trifluoroethoxy)ethan-1-one] | 19 nM
COc1cc(C(=O)N2C[C@H]3CC[C@@H]2[C@@H]3N)cc2nc(-c3cc4cccc(C5CCN(C(=O)C(OC)C6CC6)CC5)c4n3CC3CC3)n(C)c12 (stereo partly drawn) [Example 233, 1-(4-(2-(5-((1R,4R,7R)-7-amino-2-azabicyclo[2.2.1]heptane-2-carbonyl)-7-methoxy-1-methyl-1H-benzo[d]imidazol-2-yl)-1-(cyclopropylmethyl)-1H-indol-7-yl)piperidin-1-yl)-2-cyclopropyl-2-methoxyethan-1-one] | 63 nM
CCOCC(=O)N1CCC(c2cccc3cc(-c4nc5cc(C(=O)N6C[C@H]7CC[C@@H]6[C@@H]7N)cc(OC)c5n4C)n(CC4CC4)c23)CC1 [Example 234, 1-(4-(2-(5-((1R,4R,7R)-7-amino-2-azabicyclo[2.2.1]heptane-2-carbonyl)-7-methoxy-1-methyl-1H-benzo[d]imidazol-2-yl)-1-(cyclopropylmethyl)-1H-indol-7-yl)piperidin-1-yl)-2-ethoxyethan-1-one] | 49 nM

Continued, values first:

IC50 | SMILES
155 nM | COc1cc(C(=O)N2C[C@H]3CC[C@@H]2[C@@H]3N)cc2nc(-c3cc4cccc(C5CN(C(C)=O)C5)c4n3C)n(Cc3cnn(C)c3)c12 [Example 214, 1-(3-(2-(5-((1R,4R,7R)-7-amino-2-azabicyclo[2.2.1]heptane-2-carbonyl)-7-methoxy-1-((1-methyl-1H-pyrazol-4-yl)methyl)-1H-benzo[d]imidazol-2-yl)-1-methyl-1H-indol-7-yl)azetidin-1-yl)ethan-1-one]
183 nM | COc1cc(C(=O)N2C[C@H](N)C[C@@H](F)C2)cc2nc(-c3cc4cccc(C5CN(C(C)=O)C5)c4n3C)n(Cc3cnn(C)c3)c12 [Example 215, 1-(3-(2-(5-((3R,5R)-3-amino-5-fluoropiperidine-1-carbonyl)-7-methoxy-1-((1-methyl-1H-pyrazol-4-yl)methyl)-1H-benzo[d]imidazol-2-yl)-1-methyl-1H-indol-7-yl)azetidin-1-yl)ethane-1-one]
101 nM | COC(=O)N1CC(c2cccc3cc(-c4nc5cc(C(=O)N6C[C@H]7CC[C@@H]6[C@@H]7N)cc(OC)c5n4Cc4cnn(C)c4)n(C)c23)C1 [Example 216, methyl 3-(2-(5-((1R,4R,7R)-7-amino-2-azabicyclo[2.2.1]heptane-2-carbonyl)-7-methoxy-1-((1-methyl-1H-pyrazol-4-yl)methyl)-1H-benzo[d]imidazol-2-yl)-1-methyl-1H-indol-7-yl)azetidine-1-carboxylate]
27 nM | COC(=O)N1CCC(c2cccc3cc(-c4nc5cc(C(=O)N6C[C@H]7CC[C@@H]6[C@@H]7N)cc(OC)c5n4C)n(CC4CC4)c23)CC1 [Example 217, methyl 4-(2-(5-((1R,4R,7R)-7-amino-2-azabicyclo[2.2.1]heptane-2-carbonyl)-7-methoxy-1-methyl-1H-benzo[d]imidazol-2-yl)-1-(cyclopropylmethyl)-1H-indol-7-yl)piperidine-1-carboxylate]
77 nM | COC(=O)N1CC=C(c2cccc3cc(-c4nc5cc(C(=O)N6C[C@H]7CC[C@@H]6[C@@H]7N)cc(OC)c5n4C)n(CC4CC4)c23)CC1 [Example 221, methyl 4-(2-(5-((1R,4R,7R)-7-amino-2-azabicyclo[2.2.1]heptane-2-carbonyl)-7-methoxy-1-methyl-1H-benzo[d]imidazol-2-yl)-1-(cyclopropylmethyl)-1H-indol-7-yl)-3,6-dihydropyridine-1(2H)-carboxylate]
41 nM | COc1cc(C(=O)N2C[C@H]3CC[C@@H]2[C@@H]3N)cc2nc(-c3cc4cccc(C5CN(C(=O)Nc6ccccc6)C5)c4n3CC3CC3)n(C)c12 [Example 228, 3-(2-(5-((1R,4R,7R)-7-amino-2-azabicyclo[2.2.1]heptane-2-carbonyl)-7-methoxy-1-methyl-1H-benzo[d]imidazol-2-yl)-1-(cyclopropylmethyl)-1H-indol-7-yl)-N-phenylazetidine-1-carboxamide]
13 nM | COc1cc(C(=O)N2C[C@H]3CC[C@@H]2[C@@H]3N)cc2nc(-c3cc4cccc(C5CN(C(=O)Nc6ccc(F)cc6)C5)c4n3CC3CC3)n(C)c12 [Example 229, 3-(2-(5-((1R,4R,7R)-7-amino-2-azabicyclo[2.2.1]heptane-2-carbonyl)-7-methoxy-1-methyl-1H-benzo[d]imidazol-2-yl)-1-(cyclopropylmethyl)-1H-indol-7-yl)-N-(4-fluorophenyl)azetidine-1-carboxamide]
